Measurements taken from patent US20210000953A1, “USE OF IMMUNE CHECKPOINT INHIBITORS IN CENTRAL NERVOUS SYSTEMS NEOPLASMS” (Bristol-Myers Squibb Company, priority 2014, published 2021).

How the values were obtained:
[1] = system: subjects with recurrent GBM; experiment: Study CA209143 safety lead-in cohorts (Cohort 1, 1b): safety, tolerability and patient disposition; type: in vivo, human
Procedure: This is the first study examining monoclonal antibodies targeting immune checkpoint inhibitors in subjects with recurrent GBM. To ensure that nivolumab monotherapy and nivolumab in combination with ipilimumab are tolerable, safety lead-in cohorts (Cohort 1, 1b) evaluating the tolerability of two different treatment regimens were initiated prior to advancing a treatment arm into Cohort 2. Cohort 1 examined in a randomized fashion the safety and tolerability of nivolumab monotherapy dosed at 3 mg/kg every 2 weeks or nivolumab 1 mg/kg+ipilimumab 3 mg/kg every 3 weeks for four doses, then nivolumab 3 mg/kg every 2 weeks thereafter. Cohort 1b examined, in a non-randomized fashion, the safety and tolerability of nivolumab 3 mg/kg+ipilimumab 1 mg/kg every 3 weeks for four doses, then nivolumab 3 mg/kg every 2 weeks thereafter.
A randomized, open-label, multicenter, phase 3 study of nivolumab monotherapy versus bevacizumab and a safety study of nivolumab and nivolumab in combination with ipilimumab is conducted in adult (>18 years) subjects with a first recurrence of GBM after treatment with radiotherapy and temozolomide. Since the use of nivolumab and ipilimumab has not previously been studied in subjects with GBM, a safety lead-in (Cohort 1) consisting of approximately 10 subjects in each of two treatment arms are enrolled and randomized to treatment with either Arm N (nivolumab monotherapy) or Arm N+I (nivolumab combined with ipilimumab). Tolerability and safety of a treatment arm is determined after all subjects in the arm completed four doses or discontinued dosing prior to completing four doses. A safety evaluation of Cohort 1 is conducted for each arm based on criteria described herein.
Subjects will be evaluated for safety if they have received any study drug. […]
The causal relationship to study drug is determined by a physician and should be used to assess all adverse events (AE). […]
Tolerability and safety of a treatment arm was determined after all subjects per arm have completed four doses or discontinued dosing prior to completing four doses. […]

[2] = system: Tregs; experiment: Cytokine release from sorted Tregs (CD4+CD25+CD127−) ± stimulation; type: cell-based, human; conditions: GBM patients on nivolumab treatment
Procedure: Analyses were performed on peripheral blood drawn from patients at predetermined time points (FIG. 13) and tumor tissue samples were obtained if resection was performed at the time of progression or suspected progression. Baseline and on-treatment samples were obtained from patients (n=20) randomized 1:1 to receive either nivolumab 3 mg/kg every 2 weeks (Q2W) or nivolumab 1 mg/kg+ipilimumab 3 mg/kg every 3 weeks followed by nivolumab 3 mg/kg Q2W (FIG. 13). Phenotypic, maturation, and proliferation analyses were performed using flow cytometry with population-specific antibody panels (Table 11). Cytokine release analyses were carried out on supernatants from sorted Tregs (CD4+CD25+CD127−)±stimulation (PMA+ionomycin). The anti-tumor-associated antigen (TAA) activity of peripheral blood mononuclear cells (PBMCs) and tumor-infiltrating lymphocytes (TILs) was evaluated. Cells were stimulated with interleukin (IL)-2, IL-15, and TAA peptides; after 9 days of culture with IL-2 and IL-15, cells were restimulated with IL-2, IL-15, and TAA peptides. Production of interferon (IFN)γ/granzyme B was assayed using a dual-color FluoroSpot assay.

[3] = target: T1, PD-1 (Homo sapiens, UniProt Q15116); experiment: PD-1 receptor occupancy in subjects dosed with nivolumab; type: in vivo; conditions: 15 subjects, 0.3 mg/kg to 10 mg/kg, across all doses
T1 construct: Receptor-occupancy data from 15 subjects who received 0.3 mg/kg to 10 mg/kg dosing with nivolumab; endogenous in cells
T1 sequence (Q15116 25-288): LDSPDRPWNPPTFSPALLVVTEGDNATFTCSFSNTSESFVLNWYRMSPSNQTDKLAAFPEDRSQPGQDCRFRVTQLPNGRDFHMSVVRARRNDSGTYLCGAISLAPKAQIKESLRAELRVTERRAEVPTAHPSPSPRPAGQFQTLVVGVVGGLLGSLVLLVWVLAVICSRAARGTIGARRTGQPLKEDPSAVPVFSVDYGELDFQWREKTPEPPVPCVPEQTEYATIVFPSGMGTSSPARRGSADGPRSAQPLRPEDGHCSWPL
Procedure: When used in combinations with other anti-cancer agents, the dosage of an anti-PD-1 antibody can be lowered compared to the monotherapy dose. Dosages of nivolumab that are lower than the typical 3 mg/kg, but not less than 0.001 mg/kg, are subtherapeutic dosages. The subtherapeutic doses of an anti-PD-1 antibody used in the methods herein are higher than 0.001 mg/kg and lower than 3 mg/kg. In some embodiments, a subtherapeutic dose is about 0.001 mg/kg-about 1 mg/kg, about 0.01 mg/kg-about 1 mg/kg, about 0.1 mg/kg-about 1 mg/kg, or about 0.001 mg/kg-about 0.1 mg/kg body weight. In some embodiments, the subtherapeutic dose is at least about 0.001 mg/kg, at least about 0.005 mg/kg, at least about 0.01 mg/kg, at least about 0.05 mg/kg, at least about 0.1 mg/kg, at least about 0.5 mg/kg, or at least about 1.0 mg/kg body weight. Receptor-occupancy data from 15 subjects who received 0.3 mg/kg to 10 mg/kg dosing with nivolumab indicate that PD-1 occupancy appears to be dose-independent in this dose range. Across all doses, the mean occupancy rate was 85% (range, 70% to 97%), with a mean plateau occupancy of 72% (range, 59% to 81%). In some embodiments, 0.3 mg/kg dosing can allow for sufficient exposure to lead to maximal biologic activity.

[4] = Phase 1 study of nivolumab; cited from earlier work

For nivolumab, the “Patients in the study: Died” value ([1]; Cohort 1, N = 10 per arm, same regimens, deaths in both arms were due to disease, cutoff Sep. 9, 2015) was 7 (70) n (%), the “Deaths due to drug toxicity” value ([1]; Cohort 1, nivolumab 3 mg/kg monotherapy arm and nivolumab 1 mg/kg + ipilimumab 3 mg/kg combination arm, N = 10 each) was “no deaths due to drug toxicity” and the “Reason for not continuing on treatment: Disease Progression” value ([1]; Cohort 1, recurrent GBM, N = 10 per arm, nivolumab 3 mg/kg Q2W or nivolumab 1 mg/kg + ipilimumab 3 mg/kg Q3W x4 then nivolumab 3 mg/kg Q2W, cutoff Sep. 9, 2015) was 9 (90) n (%). The “Production of IFNγ by Tregs” value [2] was “increase production of IFNγ”, the “Mean plateau PD-1 occupancy” value ([3]; range 59% to 81%) was 72% and the “Mean PD-1 occupancy rate” value ([3]; range 70% to 97%) was 85%. The “Subjects with apparent progression of disease before objective response and/or stable disease” value [4] was “approximately 10%”.
